{"source": "patent US20230126569A1", "about": "“COMPOSITION FOR […] OF SARS-CoV-2 TO ACE2 PROTEIN” (priority 2020, published 2023)", "key": {"[1]": {"molecular_target": "T1, binding between the spike protein of SARS-CoV-2 and the ACE2 protein (Severe acute respiratory syndrome coronavirus 2, UniProt P0DTC2)"}, "[2]": {"molecular_target": "T1, binding between the spike protein of SARS-CoV-2 and the ACE2 protein", "remark": "listed apart in the source"}}, "note": "“And” between values parts separate entries of the source, which are not always exact repeats. Identical values can stand only once."}
{"compound": "[O][Cl+][O-]", "note": "[Chlorine Dioxide, chlorine dioxide]", "values": [{"measurement": "binding between the spike protein and the ACE2 protein", "setting": "[1]", "result": "significantly reduced"}, {"measurement": "Luminescence Intensity (counts/sec × 1000, average ± standard deviation, n = 3)", "setting": "[2]", "result": "1322 ± 45 counts/sec × 1000 and 1072 ± 47 counts/sec × 1000"}]}
